Laboratory results: US20130270195A1, “MULTIFUNCTIONAL COMPOSITION FOR THE DISINFECTION TREATMENT OF WATER, AND USE OF THIS COMPOSITION” (Compagnie Des Salins Du Midi Et Des Salines De L'Est, priority 2010, published 2013)

Columns and labels:
[1] = Evolution of turbidity of swimming pool water samples (HACH turbidity meter); format: physicochemical; settings: for Turbidity: Aquacid or metasilicate 40.0 mg/L
From the text: The aim of this test was to compare the effect of two compositions comprising sodium chloride and isocyanuric acid in disinfecting swimming pool water, one further comprising HEDP, and the other metasilicate in order to obtain a composition according to the invention.
In all of the examples below, the substances used were as follows: • salt; • isocyanuric acid; • Aquacid© (powder with 72% HEDP); • disodium metasilicate pentahydrate; • tap water; • commercial bleach (concentration of bleach: 2.15% of active chlorine); • 1N hydrochloric acid; • 35% sulfuric acid; • sodium hydroxide; and • acetone.
The following proportions were prepared to prepare the samples:
The measurement of the turbidity, in NTU (Nephelometric Turbidity Unit), was carried out with the aid of a HACH turbidity meter at the time intervals indicated in Table 3. The reaction conditions were selected in order to accelerate the appearance of any cloudiness.

[2] = Chlorine stabilizing effect under UV radiation (residual chlorine assay); format: physicochemical; settings: for Residual chlorine: starting 3 mg/L Cl2, sample 11 Aquacid 24.0 mg/L, sample 14 metasilicate 20.0 mg/L
Procedure: In the presence of UV radiation, chlorine is destroyed photochemically. Isocyanuric acid can be used to reduce the destruction of chlorine under the effect of UV.
The following apparatus was used: 5 liter volume bucket, pH meter and normal laboratory apparatus (including class A glassware).
The operating procedure can be summarized as follows: • For each test formulation, two liters of solution was prepared in the buckets provided. The isocyanuric acid was added in the liquid form from a 1 g/L solution. The additives (metasilicates, HEDP) for the formulations were added in the liquid form from 1 g/L solutions. The dose of chlorine necessary for this study was provided by bleach in quantities that meant that solutions containing 3 mg/L of Cl2 were obtained. The solutions were systematically buffered, either with sulfuric acid or with sodium hydroxide, in order to provide a starting pH in the range 6.8 to 7.4 (zone of maximum efficiency for chlorine).
The following parameters were measured during the study: • for the starting water: pH, residual chlorine, HT, calcium, AT, CAT were measured; • throughout the experiment: pH, residual chlorine were monitored.
The chlorine measurements were carried out using quantitative chlorine assay. The measurements were carried out at times T+32 h10 and T+50 h10; the formulation of the compositions at time T are given in Table 4.

[3] = Anti-corrosion effect: steel plate immersed in 4 g/L saline solutions; settings: for anti-corrosion activity: conclusion in words; for Fe loss/plate: results at 2 months, 4 g/L saline, sample 11 Aquacid 24.0 mg/L, sample 14 metasilicate 20.0 mg/L
Procedure: The principle of the method consists of completely immersing, in 4 g/L saline solutions with the compounds of the formulations, one steel plate per beaker, disposed vertically in order to have as little contact as possible with the glass. The formulations were those presented in section 4 in Example 3.
The efficacy of the formulations was evaluated as a function of the loss on ignition of the plate over a period of time, namely 2 months.
The following apparatus was used: • 400 mL beakers, pH-meter, steel plate with a surface area of 5.3 cm^2, plastic film as well as normal laboratory apparatus (including class A glassware). The operating protocol can be summarized as follows:
• stripping the plates with 1N hydrochloric acid using ultrasound in order to have plates of identical quality; • degreasing the plate with acetone in order to obtain identical active surfaces; • weighing the plates with milligram precision.
Swimming pool concentration solutions were prepared in advance in 2 liters (L) graduated flasks in order to provide mutually homogeneous media. The beakers were filled with 300 mL of the above-mentioned solutions. The beakers were covered with food quality film in order to prevent the medium from being polluted and in order to prevent too much evaporation.
The parameters measured were as follows: • on the tap water: pH, HT, AT, CAT, calcium.
In order to accelerate the phenomenon of corrosion, bubbling was carried out using an aquarium pump and outlet jets mounted on a rail. The bubbling time was 10 minutes. The solutions were aerated on odd days of the week. Since bubbling raises the pH, it was brought back to swimming pool in-service values, between 6.8 and 7.4. In order to maintain the salinity at 4 g/L and to overcome natural evaporation, tap water was added in order to keep the volume of water constant at 300 mL.
The following parameters were measured: • pH; • observations of the solutions and immersed plates once a day, taking photographs. These observations were made without handling either the beakers or the solutions.
The scraping spatula was treated with ultrasound then the plates were scraped using the spatula to recover the deposit. In order to terminate stripping of the plate and thus to collect all of the deposit, the plate and the spatula were treated with ultrasound in a water bath. The deposits were then filtered through 10 micrometer (pm) pores and 1.2 μm pores and then dried.
The following parameters were measured: • the plates were weighed to milligram precision; • an iron analysis was carried out on the plates; • a dissolved iron analysis was carried out on the solutions.
The analyses were carried out after 2 months.

[4] = Anti-limescale effect: calcium deposited as limescale on beaker walls; settings: for anti-limescale activity: conclusion in words; for % non limescale calcium / Calcium (part of the calcium responsible for the production of limescale): sample 11 Aquacid 24.0 mg/L, sample 14 metasilicate 20.0 mg/L
Procedure: The aim of this test was to analyze the reaction of two additives (HEDP, metasilicate) in the presence of calcium.
The apparatus used was as follows: • new beakers with a volume of 400 milliliters (mL), a pH meter, an oven at 70° C., plastic film as well as normal laboratory apparatus (including class A glassware).
The operating protocol can be summarized as follows: • For each test formulation, 300 mL of equivalent swimming pool solution was prepared in the beakers provided. Each series of analyses was spread over two types of water: one with a HT=30° F. and one with a HT=15° F., in order to produce a spectrum of results covering a broad range of water types. The isocyanuric acid was added in the liquid form from a 1 grams per liter (g/L) solution. The additives (HEDP, metasilicate) for the formulations were added in the liquid form from 1 g/L solutions. The solutions were systematically buffered, either with sulfuric acid or with sodium hydroxide, in order to provide an initial pH in the range 6.8 to 7.4 (maximum efficiency range for chlorine). The solutions were left covered with film and were analyzed 3 days later so that the substances had reacted. At the time the analysis was carried out, the beakers were placed in an oven at 70° C. in order to evaporate the liquid phase. They were then rinsed with 100 ml of osmosis purified water in order to eliminate the soluble deposits and to leave only limescale deposits on their walls. The beakers were then refilled with osmosis purified water and 1 mL of 1N hydrochloric acid in order to dissolve the deposits: the measurements were carried out on these solutions.
The parameters below were monitored during the study: • The following were measured for the starting tap water: pH, HT (hydrptimetric titer), calcium, AT (alkalimetric titer), and CAT (complete alkalimetric titer).
The pH was monitored throughout the experiment. The calcium was measured at the end of the experiment.

[5] = time T, salt 4.0 g/L, iso acid 28.0 mg/L, chlorine 3.0 mg/L
[6] = first starting water, HT 27 °f, calcium 109 mg/L
[7] = second starting water, HT 14.6 °f
[8] = second starting water, HT 14.6 °f, calcium 44.3 mg/L

Turbidity ([1]; T + 94 h) | Turbidity ([1]; T + 118 h) | Turbidity ([1]; T + 142 h) | Turbidity ([1]; T + 168 h) | Turbidity ([1]; T + 192 h) | Turbidity ([1]; T + 216 h) | Turbidity [1, 5] | Loss of chlorine ([2]; T + 32 h 10) | Residual chlorine ([2]; T + 32 h 10) | Loss of chlorine ([2]; T + 50 h 10) | Residual chlorine ([2]; T + 50 h 10) | SMILES | anti-corrosion activity [3] | Fe loss/plate [3] | anti-limescale activity [4] | calcium in the water before treatment transformed into limescale ([4]; first starting water, HT 27 °f) | % non limescale calcium [4, 6] | Calcium (part of the calcium responsible for the production of limescale) [4, 6] | calcium of the water before treatment transformed into limescale [4, 7] | % non limescale calcium [4, 8] | Calcium (part of the calcium responsible for the production of limescale) [4, 8] | other results
0.538 NTU | 0.547 NTU | 0.526 NTU | 0.579 NTU | 1.4 NTU | 1.45 NTU | 0.274 NTU | 36.36% | 1.89 mg/L | 62.96% | 1.1 mg/L | O.O.O.O.O.O=[Si]([O-])[O-].[Na+].[Na+] [Metasilicate, disodium metasilicate pentahydrate] | anti-corrosion activity that is even better than that of HEDP | 1.63% | better anti-limescale activity than that of the HEDP | 3.5% | 96.5% | 3.8 mg/L | 5.9% | 94.1% | 2.6 mg/L | cloudiness of the water detectable to the naked eye ([1]; same conditions as Table 3): does not induce any cloudiness; preservation of the residual chlorine concentration ([2]; conclusion in words): preserves the residual chlorine concentration better than HEDP
20.5 NTU | 22.5 NTU | 30.1 NTU | 34.2 NTU | 44.4 NTU | 56.8 NTU | 0.243 NTU | 100.00% | 0 mg/L | 100.00% | 0 mg/L | CC(O)(P(=O)(O)O)P(=O)(O)O [HEDP, 1-hydroxyethane-1,1-diphosphonic acid, reference compound] | have an anti-corrosion activity | 2.80% | have an anti-limescale activity | 7.9% | 92.1% | 8.6 mg/L | 8.6% | 91.4% | 3.8 mg/L | –
